Where a SMILES comes first, the peptide text is derived from it. The star is where a group is joined. Cbz = O=C(OCc1ccccc1)*; CH2F = FC*
Assays:
Format in all cases: cell-based, mouse
4T1.2 shRNA (P2X7) = test: Synergy between Ivermectin and ATP (CI), P2X7 knockdown cells
Description: (§1) FIGS. 5A-5E. CaMKII-independent P2X7-mediated killing. FIG. 5A: qPCR showing the extent of gene knockdown in 4T1.2 cells transfected with shRNA targeting the P2X7 receptor versus non-targeting (NT) control (left panel). […] One million wt, shRNA(NT) and shRNA(P2X7) 4T1.2 cells were plated and incubated for 48 h before evaluation of cell numbers and viability. FIG. 5B: P2X7 knockdown cells are more resistant to ATP and the ATP/IVM combo. 4T1.2 cells were treated for 24 h with 1-3 mM ATP, 6-10 μM Ivermectin, or combinations of ATP and Ivermectin. P2X7 knockdown suppresses the synergy between Ivermectin and high dose ATP, as shown by calculation of combination index (CI) values, see Table 2. FIG. 5C: P2X7 knockdown cells are resistant to ATP/Ivermectin induced membrane permeabilization (Asterisk (*) indicates p<0.05). […] FIG. 5E: Comparison of the protective effects of P2X7, CaMKII, and NADPH oxidases inhibition in short-term (4 h, 32 μM IVM) and long-term (24 h, 12 μM IVM) exposure of 4T1.2 cells to Ivermectin. Asterisk (*) indicates p<0.05 relative to Ivermectin alone controls.
(§2) Cell viability. Cancer cells were plated on 96 well flat-bottom plates and allowed to attach overnight. Cells were then pre-incubated with drugs for 1 h and treated with Ivermectin for 4 h. In the case of 24 h and 48 h incubations the cells, Ivermectin and drugs were plated together. All treatments and controls were done in triplicate wells and results were validated in at least two independent experiments. Following treatment the plates were washed once with PBS and cell viability was measured using the acid phosphatase assay. Briefly, cells were incubated for 1h at 37° C. in 100 μL assay buffer (0.16 M sodium acetate, 0.1% Triton-X-100, supplemented with 4-Nitrophenyl phosphate disodium salt hexahydrate, Sigma Aldrich, at 0.00263 g/ml). Reaction was stopped using 10 μL of 1N sodium hydroxide. Absorption at 405 nm was measured within 10 min using a multi-well plate reader. Mode of cell death and viability of cells in suspension was evaluated using flow cytometry. Briefly, cancer cells were pre-incubated with drugs for 30 min to 1 h, as indicated, treated with Ivermectin for 4 h in 5 ml FACS tubes , washed twice in PBS and stained with PE-conjugated Annexin V and 7AAD (1 μl per 100 μl/200,000 cancer cells) for 15 min.
(§3) Generation of P2X7 receptor knockdown 4T1.2 cells. 4T1.2 cells were transduced using Sigma mission shRNA lentiviral transduction particle with four P2X7 shRNA (NM_011027/TRCN0000068568, NM_011027/TRCN0000068570, NM_011027/TRCN0000068571, NM_011027/TRCN0000068572) or Non-Target control (SHC002V). The viral particles were added to growing cells in the presence of […] POLYBRENE® (Sigma, St Louis, Mo.), and incubated overnight at 37° C. Puromycin selection (2000 ng/ml) was done from third day onwards to select for stably transformed cells.

4T1.2 shRNA (NT) = test: Synergy between Ivermectin and ATP (CI), non-targeting control cells
Description: as §1, §2, §3

4T1.2 cells = test: Cell viability (acid phosphatase assay) of cancer cells treated with Ivermectin; settings: cells treated with Ivermectin (32 μM, 4 h in figure legends) in the presence of the agent
Description: as §2

4T1.2 cancer cells = test: Synergy between Ivermectin and ROS (CompuSyn CI); settings: 4T1.2, 24 h/48 h
Description: FIGS. 2A-2C. Role of NADPH oxidases-generated ROS. […] 4T1.2 cells were labeled with a ROS detection probe and treated for 1 h with 32 μM Ivermectin in the presence of 1 mM EDTA, 5mM NAC, 5 μM DPI, 2500 μunits/ml Apyrase, 3 mM ATP, and 10 μM KN-62. […] Triangles (▴) indicate significant antagonism CI>1.0. […] 4T1.2 cancer cells were irradiated (10-20 kRad) or treated with H2O2 (10-1000 μM), PTX (0.1-1 μM), or DOX (1-4 μM) and incubated with Ivermectin for 24 h/48 h. Circles (●) indicate significant synergy CI<1.0, see Table 1. Asterisk (*) indicates p<0.05 relative to untreated or Ivermectin alone controls, respectively.
as §2, with “All treatments and controls were done in triplicate wells and results were validated in at least two independent experiments.” left out

[1] = system: murine and human TNBC cells; test: Reactive oxygen species
Description: Reactive oxygen and nitrogen species. Cancer cells in suspension were washed with PBS and loaded with 50 μM H2DCFDA (Molecular Probes, Life Technologies, D399) or 5 μM DAF-2 (Cayman Chemical, Catalog #85165) for 30 min at room temperature in the dark. Cells were washed twice with PBS and treated with various doses of Ivermectin in R10 medium. Cells were incubated for 1h in 5 ml FACS tubes at 37° C. and 5% CO2, and immediately analyzed by flow cytometry. Generation of intracellular ROS and NO results in corresponding increases in the GFP fluorescence of the H2DCFDA and DAF-2 probes, respectively.

Compound: Nc1ncnc2c1ncn2[C@@H]1O[C@H](COP(=O)(O)OP(=O)(O)OP(=O)(O)O)[C@@H](O)[C@H]1O [ATP, adenosine triphosphate]
- CI values (4T1.2 shRNA (P2X7); ATP 1 + I 6, 24 h): 1.49
- CI values (4T1.2 shRNA (P2X7); ATP 1 + I 8, 24 h): 1.39
- CI values (4T1.2 shRNA (P2X7); ATP 1 + I 10, 24 h): 1.35
- CI values (4T1.2 shRNA (P2X7); ATP 2 + I 6, 24 h): 1.18
- CI values (4T1.2 shRNA (P2X7); ATP 2 + I 8, 24 h): 1.03
- CI values (4T1.2 shRNA (P2X7); ATP 2 + I 10, 24 h): 1.11
- CI values (4T1.2 shRNA (P2X7); ATP 3 + I 6, 24 h): 0.96
- CI values (4T1.2 shRNA (P2X7); ATP 3 + I 8, 24 h): 0.91
- CI values (4T1.2 shRNA (P2X7); ATP 3 + I 10, 24 h): 0.86
- CI values (4T1.2 shRNA (NT); ATP 1 + I 6, 24 h): 1.18
- CI values (4T1.2 shRNA (NT); ATP 1 + I 8, 24 h): 1.01
- CI values (4T1.2 shRNA (NT); ATP 1 + I 10, 24 h): 1.24
- CI values (4T1.2 shRNA (NT); ATP 2 + I 6, 24 h): 1.17
- CI values (4T1.2 shRNA (NT); ATP 2 + I 8, 24 h): 1.01
- CI values (4T1.2 shRNA (NT); ATP 2 + I 10, 24 h): 1.10
- CI values (4T1.2 shRNA (NT); ATP 3 + I 6, 24 h): 0.67
- CI values (4T1.2 shRNA (NT); ATP 3 + I 8, 24 h): 0.64
- CI values (4T1.2 shRNA (NT); ATP 3 + I 10, 24 h): 0.63

Compound: CCCCC1(C2CCCC2)Cc2cc(OCCCC(=O)O)c(Cl)c(Cl)c2C1=O (centres unmarked) [DCPIB]
- effect on Ivermectin-induced cell death (4T1.2 cells): exacerbates Ivermectin killing

Compound: COc1cccc2c1C(=O)c1c(O)c3c(c(O)c1C2=O)C[C@@](O)(C(=O)CO)C[C@@H]3O[C@H]1C[C@H](N)[C@H](O)[C@H](C)O1 [DOX, doxorubicin]
- CompuSyn CI values (4T1.2 cancer cells; DOX 1 + Ivermectin 2): .43
- CompuSyn CI values (4T1.2 cancer cells; DOX 1 + Ivermectin 4): .61
- CompuSyn CI values (4T1.2 cancer cells; DOX 2 + Ivermectin 2): .42
- CompuSyn CI values (4T1.2 cancer cells; DOX 2 + Ivermectin 4): .56

Compound: c1ccc2c(c1)[I+]c1ccccc1-2 [DPI, Diphenyleneiodonium]
- effect on Ivermectin-induced cell death (4T1.2 cells): transiently block Ivermectin-induced killing

Compound: C[C@H]1O[C@@H](O[C@H]2[C@@H](O)C[C@H](O[C@H]3[C@@H](O)C[C@H](O[C@H]4CC[C@@]5(C)[C@H](CC[C@@H]6[C@@H]5C[C@@H](O)[C@]5(C)[C@@H](C7=CC(=O)OC7)CC[C@]65O)C4)O[C@@H]3C)O[C@@H]2C)C[C@H](O)[C@@H]1O [Digoxin]
- effect on Ivermectin-induced cell death (4T1.2 cells): demonstrated some protection

Compound: O=C(O)CN(CCN(CC(=O)O)CC(=O)O)CC(=O)O [EDTA]
- effect on Ivermectin-induced cell death (4T1.2 cells): cell death can be suppressed

Compound: N[C@@H](CCC(=O)N[C@@H](CS)C(=O)NCC(=O)O)C(=O)O [GSH]
- blockade of Ivermectin-induced ROS by ROS scavengers [1]: less effective against Ivermectin-induced ROS
- effect on Ivermectin-induced cell death (4T1.2 cells): completely failed to prevent, or even delay, Ivermectin-induced killing

Compound: OO [H2O2]
- CompuSyn CI values (4T1.2 cancer cells; H2O2 100 + Ivermectin 8): .46
- CompuSyn CI values (4T1.2 cancer cells; H2O2 100 + Ivermectin 16): .39
- CompuSyn CI values (4T1.2 cancer cells; H2O2 1000 + Ivermectin 8): .24
- CompuSyn CI values (4T1.2 cancer cells; H2O2 1000 + Ivermectin 16): .20

Compound: CC(=O)N[C@@H](CS)C(=O)O [NAC]
- blockade of Ivermectin-induced ROS by ROS scavengers [1]: less effective against Ivermectin-induced ROS
- effect on Ivermectin-induced cell death (4T1.2 cells): completely failed to prevent, or even delay, Ivermectin-induced killing

Compound: CN1C(=O)C(Cc2c[nH]c3ccccc23)NC1=S (centres unmarked) [Necrostatin]
- effect on Ivermectin-induced cell death (4T1.2 cells): demonstrated some protection

Compound: Nc1ncnc2c1ncn2[C@@H](C=O)O[C@@H](C=O)COP(=O)(O)OP(=O)(O)OP(=O)(O)O [OxATP]
- effect on Ivermectin-induced cell death (4T1.2 cells): did not observe any protection

Compound: Cc1nc(N=Nc2ccc(S(=O)(=O)O)cc2S(=O)(=O)O)c(COP(=O)(O)O)c(C=O)c1O [PPADs]
- effect on Ivermectin-induced cell death (4T1.2 cells): did not observe any protection

Compound: Nc1c(S(=O)(=O)[O-])cc(Nc2ccc(Cl)cc2)c2c1C(=O)c1ccccc1C2=O.[Na+] [PSB 069]
- effect on Ivermectin-induced cell death (4T1.2 cells): Ivermectin-induced cytotoxicity was suppressed

Compound: CC(=O)O[C@H]1C(=O)[C@@]2(C)[C@H]([C@H](OC(=O)c3ccccc3)[C@]3(O)C[C@H](OC(=O)[C@H](O)[C@@H](NC(=O)c4ccccc4)c4ccccc4)C(C)=C1C3(C)C)[C@]1(OC(C)=O)CO[C@@H]1C[C@@H]2O [PTX, paclitaxel]
- CompuSyn CI values (4T1.2 cancer cells; PTX 0.1 + Ivermectin 1): .35
- CompuSyn CI values (4T1.2 cancer cells; PTX 0.1 + Ivermectin 2): .52
- CompuSyn CI values (4T1.2 cancer cells; PTX 1 + Ivermectin 1): .30
- CompuSyn CI values (4T1.2 cancer cells; PTX 1 + Ivermectin 2): .51

Compound: CCCN(CCC)S(=O)(=O)c1ccc(C(=O)O)cc1 [Probenecid]
- effect on Ivermectin-induced cell death (4T1.2 cells): enhanced Ivermectin cytotoxicity

Compound: Cc1ccc(C(=O)Nc2ccc(S(=O)(=O)O)c3cc(S(=O)(=O)O)cc(S(=O)(=O)O)c23)cc1NC(=O)c1cccc(NC(=O)Nc2cccc(C(=O)Nc3cc(C(=O)Nc4ccc(S(=O)(=O)O)c5cc(S(=O)(=O)O)cc(S(=O)(=O)O)c45)ccc3C)c2)c1 [Suramin]
- effect on Ivermectin-induced cell death (4T1.2 cells): Ivermectin killing was initially enhanced

Compound: CCO[C@@H]1OC(=O)C[C@@H]1NC(=O)[C@@H]1CCCN1C(=O)[C@@H](NC(=O)c1ccc(N)c(Cl)c1)C(C)(C)C [VX-765]
- effect on Ivermectin-induced cell death (4T1.2 cells): demonstrated some protection

Compound: COC(=O)C[C@H](NC(=O)[C@H](C)NC(=O)[C@@H](NC(=O)OCc1ccccc1)C(C)C)C(=O)CF [Z-vad-fmk] (Cbz-Val-Ala-Asp(OMe)-CH2F)
- effect on Ivermectin-induced cell death (4T1.2 cells): inhibited cell death very effectively

Compound: Apyrase
- effect on Ivermectin-induced cell death (4T1.2 cells): Ivermectin killing was initially enhanced

— US11058700B2, “Macrocyclic lactones and uses thereof as modulators of purinergic receptors” (City of Hope, priority 2015, dated 2021)
